According to patent US6984649B1, “Pyridine derivatives” (Bayer Aktiengesellschaft, priority 2000, dated 2006):
Structures can show the parent of a compound that is named as a salt.

These compounds were tested on A549 human lung epithelium cell line (assay: RANTES production in response to TNF-α from A549 cells). Conditions: Homo sapiens, A549, A549 cells, 100 ng/ml TNF-α, read-out: Cellular activity grade (A549) (Cellular IC50).
Assay type: cell-based
Protocol: [The Measurement of RANTES Production in Response to TNF-α from A549 Cells]
(1) Preparation of A549 Cells
• The A549 human lung epithelium cell line (ATCC […]) was maintained in Dulbecco's modified Eagle's medium (D-MEM, Nikken Biomedical Institute) supplemented with 10% FCS (Gibco), 100 U/ml penicillin, 100 μg/ml streptomycin, and 2 mM glutamine (culture medium). Forty thousand (4×10^4) cells (80 μl/well) were seeded in each well of 96 well flat-bottom tissue culture plate (Falcon #3072). The plate was allowed to stand for 2 hrs, thus the cells were adhered to the bottom of each well. To the each well was added 10 μl vehicle (1% DMSO), serial dilutions of test compounds in 1% DMSO, or 5 nM Dexamethasone in 1% DMSO as a reference. The mixture (90 μl/well) was incubated for 1 hr at 37° C. After 1 hr, 1 μg/ml TNF-α (10 μl) in culture medium was added to the mixture to obtain 100 μl of reaction mixture. The reaction mixture was cultured for 24 hrs to stimulate the cells with 100 ng/ml TNF-α. Cells with vehicle without TNF-α stimulation were also prepared. (2) Measurement of RANTES Production • Then the concentration of RANTES released from the cells in the supernatants of each well was determined using a quantitative sandwich enzyme immunoassay technique. First, 2 μg/ml mouse anti-huRANTES mAb (R&D Systems, #mAb678) in PBS buffer (pH 7.4, 100 μl) was put in each well of 96-well NUNC fluoro plate (Nalge Nunc, New York USA) (Final 200 ng/well) and the plate was allowed to stand for overnight at 4° C. to be coated by the antibody. Each well of the plate was then washed with 350 μl wash buffer (0.05% Tween-20, 0.85% NaCl, and 25 mM Tris/HCl pH7.4) for three times. Blocking buffer containing 1% BSA (Sigma 99% pure, 100 g), 5% sucrose (Nacalai tesque, 99% pure, 500 g), and 0.02% azide (Nacalai tesque, 100%, 500 g) were added (200 μl) to each well and then the plate was allowed to stand for 4 hours to stabilize the coated antibody. Next, 50 μl supernatants of cell culture prepared in (1) above were put in each well of the 96-well NUNC fluoro plate with coated antibody. Recombinant Human RANTES (Pepro Tech, Inc. #300-06) was used as the standard for the determination of RANTES production (linear range between 1 and 10 ng/ml). Eu-labelled mouse anti-huRANES mAb (60 ng/ml: R&D Systems, #mAb278) in PBS supplemented by 1% BSA and 0.05% Tween 20 was added (50 μl) to each well. The reaction mixtures were incubated at room temperature for 4 hrs. After washing with wash buffer (0.05% Tween-20, 0.85% NaCl, and 25 mM Tris/HCl pH7.4, 350 μl/well) for 5 times with the use of a Sera Washer (Bio-Tech, #MW-96R), the enhancement solution (DELFIA, #1244-405, 100 μl/well) was added to each well. The plate was incubated for 10 minutes at room temperature with moderate shaking. Fluorescent intensity was measured using a DELFIA fluorimeter (Wallac). Excitation was performed at 340 nm and emission was measured at 615 nm. [The Measurement of TNF-α Production in Response to LPS from Peripheral Blood Mononuclear Cells (PBMC)] (1) Preparation of PBMC • Human PBMC were prepared by first obtaining blood from healthy donors and isolating the cells from the blood. The isolation was done by Ficoll gradient-centrifugation method using Ficoll Pacque (Pharmacia #17-1440-02). Within three hours from donation, the isolated PBMC was used. After three times washing with PBS, PBMC were resuspended with RPMI 1640 (Nikken BioMedical Institute) supplemented with 10% FCS (Gibco), 100 U/ml penicillin, 100 μg/ml streptomycin, and 2 mM glutamine (culture medium). The cells (1×10^5 in 150 μL/well) were seeded in each well of 96 well flat-bottom tissue culture plate (Falcon #3072). To the each well was added 20 μl vehicle (1% DMSO), serial dilutions of test compounds in 1% DMSO, or 250 nM Dexamethasone in 1% DMSO as a reference. The mixture (170 μl/well) was incubated for 1 hr at 37° C. After 1 hr, 20 ng/ml LPS (30 μl) in culture medium was added to the mixture to obtain 200 μl of reaction mixture. […]

Row | IC50 | SMILES
1 | 1000 to 10000 nM | N#Cc1ccc(-c2ccccc2O)nc1N [Example 33-1, 2-amino-6-(2-hydroxyphenyl)nicotinonitrile]
2 | > 10000 nM | N#Cc1c(C2CCCNC2)cc(-c2c(N)cccc2O)nc1N (stereo not drawn) [Example 1-10, 2-amino-6-(2-amino-6-hydroxyphenyl)-4-(3-piperidinyl)nicotinonitrile hydrochloride]
3 | 1000 to 10000 nM | O=S1(=O)NCc2c(C3CCCNC3)cc(-c3ccccc3O)nc2N1 (stereo not drawn) [Example 22-5, 2-[2,2-dioxido-5-(3-piperidinyl)-3,4-dihydro-1H-pyrido[2,3-c][1,2,6]thiadiazin-7-yl]phenol hydrochloride]
4 | > 10000 nM | Nc1nc(-c2c(O)cccc2OCC2CC2)cc(C2CCCNC2)c1C(=O)O (stereo not drawn) [Example 9-3, 2-amino-6-[2-(cyclopropylmethoxy)-6-hydroxyphenyl]-4-(3-piperidinyl)nicotinic acid hydrochloride]
5 | > 10000 nM | O=c1[nH]c2nc(-c3ccccc3O)cc(C3CCCNC3)c2c(=O)n1-c1ccccc1 (stereo not drawn) [Example 7-3, 7-(2-hydroxyphenyl)-3-phenyl-5-(3-piperidinyl)pyrido[2,3-d]pyrimidine-2,4(1H,3H)-dione hydrochloride]
6 | > 10000 nM | N#Cc1c(N2CCOCC2)cc(-c2ccccc2O)nc1N [Example 34-1, 2-amino-6-(2-hydroxyphenyl)-4-(4-morpholinyl)nicotinonitrile]
7 | < 1000 nM | O=C1Nc2nc(-c3ccccc3O)cc(C3=CCCNC3)c2CO1 [Example 18-6]
8 | < 1000 nM | CC(=O)NCc1c(C2CCCNC2)cc(-c2c(O)cccc2OCC2CC2)nc1N (stereo not drawn) [Example 23-1, N-{[2-amino-6-[2-(cyclopropylmethoxy)-6-hydroxyphenyl]-4-(3-piperidinyl)-3-pyridinyl]methyl}acetamide hydrochoride]
9 | > 10000 nM | N#Cc1c(N2CCC(C(N)=O)CC2)cc(-c2ccccc2O)nc1N [Example 34-2, 1-[2-amino-3-cyano-6-(2-hydroxyphenyl)-4-pyridinyl]-4-piperidinecarboxamide]
10 | 1000 to 10000 nM | CC1(c2cc(-c3ccccc3O)nc(N)c2C#N)CCCNC1 (stereo not drawn) [Example 1-3, 2-amino-6-(2-hydroxyphenyl)-4-(3-methylpiperidin-3-yl)-nicotinonitrile hydrochloride]
11 | > 10000 nM | CC(=O)Nc1cccc(O)c1-c1cc(C2CCCNC2)c(C#N)c(N)n1 (stereo not drawn) [Example 1-12, N-{2-[6-amino-5-cyano-4-(3-piperidinyl)-2-pyridinyl]-3-hydroxyphenyl}acetamide hydrochloride]
12 | 1000 to 10000 nM | Nc1nc(-c2ccccc2O)cc2c1C(=O)N1CCCC2C1 (stereo not drawn) [Example 8-1, 6-amino-4-(2-hydroxy-phenyl)-5,9-diaza-tricyclo[7.3.1.0^2,7]trideca-2(7),3,5-trien-8-one]
13 | < 1000 nM | CC(=O)Nc1nc(-c2c(O)cccc2OCC2CC2)cc(C2CCNCC2)c1C#N [Example 6-2, N-[3-cyano-6-[2-(cyclopropylmethoxy)-6-hydroxyphenyl]-4-(4-piperidinyl)-2-pyridinyl]acetamide hydrochloride]
14 | 1000 to 10000 nM | N#Cc1c(N2CCCC(N)C2)cc(-c2ccccc2O)nc1N (stereo not drawn) [Example 34-3, 2-amino-4-(3-amino-1-piperidinyl)-6-(2-hydroxyphenyl)nicotinonitrile hydrochloride]
15 | 1000 to 10000 nM | CC(=O)Nc1nc(-c2ccccc2O)cc(C2CCCNC2)c1C#N (stereo not drawn) [Example 6-1, N-[3-cyano-6-(2-hydroxyphenyl)-4-(3-piperidinyl)-2-pyridinyl]acetamide hydrochloride]
16 | < 1000 nM | CN1CCCC(c2cc(-c3c(O)cccc3OCC3CC3)nc(N)c2C#N)C1 (stereo not drawn) [Example 3-1, 2-amino-6-[2-(cyclopropylmethoxy)-6-hydroxyphenyl]-4-(1-methyl-3-piperidinyl)nicotinonitrile]
17 | 1000 to 10000 nM | CC1OC(=O)Nc2nc(-c3ccccc3O)cc(C3CCCNC3)c21 (stereo not drawn) [Example 18-3, hydrochloride]
18 | 1000 to 10000 nM | Nc1nc(-c2ccccc2O)cc2c1CN[C@@H]2Cc1ccccc1 [Example 20-2, 2-[(1R)-4-amino-1-benzyl-2,3-dihydro-1H-pyrrolo[3,4-d]pyridin-6-yl]phenol hydrochloride]
19 | < 1000 nM | N#Cc1c(C2CCCNC2)cc(-c2c(O)cccc2OCc2ccccc2)nc1N (stereo not drawn) [Example 2-2, 2-amino-6-[2-(benzyloxy)-6-hydroxyphenyl]-4-(3-piperidinyl)nicotinonitrile hydrochloride]
20 | < 1000 nM | Nc1nc(-c2c(O)cccc2OCC2CC2)cc(C2CCNCC2)c1Cn1ccnc1 [Example 21-2, 2-[6-amino-5-(1H-imidazol-1-ylmethyl)-4-(4-piperidinyl)-2-pyridinyl]-3-(cyclopropylmethoxy)phenol hydrochloride]
21 | 1000 to 10000 nM | N#Cc1c(C2CCCNC2)cc(-c2ccccc2O)nc1Nc1ccccc1 (stereo not drawn) [Example 4-4, hydrochloride]
22 | < 1000 nM | CC(=O)N1Cc2c(C3CCCNC3)cc(-c3c(O)cccc3OCC3CC3)nc2NC1=O (stereo not drawn) [Example 24-1, 3-acetyl-7-[2-(cyclopropylmethoxy)-6-hydroxyphenyl]-5-(3-piperidinyl)-3,4-dihydropyrido[2,3-d]pyrimidin-2(1H)-one hydrochloride]
23 | < 1000 nM | N#Cc1c(C2CCCNC2)cc(-c2ncccc2O)nc1N (stereo not drawn) [Example 1-6, 6-amino-3′-hydroxy-4-(3-piperidinyl)-2,2′-bipyridine-5-carbonitrile hydrochloride]
24 | < 1000 nM | Nc1nc(-c2ncccc2O)cc(C2CCCNC2)c1CO (stereo not drawn) [Example 11-3, 6′-amino-5′-(hydroxymethyl)-4′-3-piperidinyl)-2,2′-bipyridin-3-ol hydrochloride]
25 | 1000 to 10000 nM | CC(O)c1c(C2CCCNC2)cc(-c2ccccc2O)nc1N (stereo not drawn) [Example 15-1, 2-[6-amino-5-(1-hydroxyethyl)-4-(3-piperidinyl)-2-pyridinyl]phenol hydrochloride]
26 | > 10000 nM | O=c1[nH]c(=O)c2c(C3CCCNC3)cc(-c3ccccc3O)nc2[nH]1 (stereo not drawn) [Example 7-2, 7-(2-hydroxyphenyl)-5-(3-piperidinyl)pyrido[2,3-d]pyrimidine-2,4(1H,3H)-dione hydrochloride]
27 | > 10000 nM | N#Cc1c(C2CCCC(C(=O)O)C2)cc(-c2ccccc2O)nc1N (stereo not drawn) [Example 1-8, 3-[2-amino-3-cyano-6-(2-hydroxyphenyl)-4-pyridinyl]cyclohexanecarboxylic acid]
28 | < 1000 nM | NCCNc1cc(-c2c(O)cccc2OCC2CC2)nc2c1COC(=O)N2 [Example 35-1, 5-[(2-aminoethyl)amino]-7-[2-(cyclopropylmethoxy)-6-hydroxyphenyl]-1,4-dihydro-2H-pyrido[2,3-d][1,3]oxazin-2-one hydrochloride]
29 | < 1000 nM | CC(=O)Nc1cc2c(C3CCCNC3)cc(-c3c(O)cccc3OCC3CC3)nc2[nH]c1=O (stereo not drawn) [Example 29-3, N-[7-[2-(cyclopropylmethoxy)-6-hydroxyphenyl]-2-oxo-5-(3-piperidinyl)-1,2-dihydro-1,8-naphthyridin-3-yl]acetamide hydrochloride]
30 | 1000 to 10000 nM | Cn1c(=O)[nH]c2nc(-c3ccccc3O)cc(C3CCCNC3)c2c1=O (stereo not drawn) [Example 10-1, 7-(2-hydroxy-phenyl)-3-methyl-5-piperidin-3-yl-1H-pyrido[2,3-d]pyrimidine-2,4-dione hydrochloride]
